Measured values as given in US9428726B2, “Modified host cells with efflux pumps” (priority 2010, dated 2016).
Like-named read-outs stand apart in the source and are kept apart here.

Columns and labels:
E. coli DH1 ΔacrAB [1] = type: cell-based; conditions: top performing pump versus negative control, FIG. 3B and 3D
Experimental: Individual strains were adapted to M9 minimal medium as described in the Supporting Methods. […] The biofuel being tested was added directly to the cultures and they were grown overnight at 37° C. with orbital shaking. For end point measurements, the optical density was measured after 14 hours of growth in triplicate 5 ml cultures. For growth curve measurements, cultures were grown in triplicate in 24-well plates with 800 μl per well and optical density was measured every 10 minutes with a plate reader (BioTek Synergy 4, USA).

E. coli DH1 ΔacrAB [2] = conditions: for toxicity of the biofuel to cell growth: E. coli host, in words; for biofuel level that inhibited growth: added to pooled culture in M9 minimal medium, aimed at an inhibitory concentration that reduced growth by 25%
Experimental: In order to screen the efflux pump library against a variety of biofuels we devised a competition-based strategy to select for pumps that improved biofuel tolerance (FIG. 1A). Cells containing plasmids with individual pumps were grown separately and then pooled so that all individual strains were represented equally. This pooled culture was then grown both with and without biofuel, and maintained through serial dilutions every 10-14 hours over a total of 96 hours. At each dilution time point, plasmids from each culture were isolated and a custom microarray was used to quantify the amount of each efflux pump plasmid present in the culture (Methods).
Pooled culture glycerol stocks were used to inoculate M9 minimal medium with 30 μg/ml kanamycin and 10 μM IPTG. The culture was then divided into tubes to a final volume of 5 ml and biofuel was added directly to the tubes. All conditions were prepared in triplicate. Cultures were grown at 37° C. with orbital shaking at 200 rpm for all experiments.
Every 10-14 hours the cultures were diluted 1:100 into 5 ml of fresh M9 minimal medium with kanamycin, IPTG, and biofuel (where applicable). For the time-course assay, cultures were spun down at the completion of a growth cycle and plasmids were isolated. For end point competition assays, plasmid was isolated from the culture after 72 hours of serial dilution.
Custom microarrays (NimbleGen, Roche, USA) were used to measure the relative quantities of the efflux pumps present in the plasmid DNA isolated from the competition cultures. Arrays were designed so that they contained probes for all HAE1 annotated efflux pumps from all sequenced bacterial genomes. 12×135K arrays were used to allow for 12 experiments per slide.
Plasmid DNA was labeled and hybridized following the protocol for NimbleGen Comparative Genomic Hybridization Microarrays with minor modifications (Supporting Methods). Data were normalized using the standard settings for RMA analysis in the NimbleScan software. Probe values were averaged using a custom Matlab script (Mathworks, Inc.). […] For the positive hybridization control, all library plasmids were prepared individually and combined in vitro in equal proportions. For the negative hybridization control, a plasmid with the same vector backbone as those in the library, but no efflux pump, was isolated from DH1 ΔacrAB. Both hybridization controls were labeled and hybridized to the array using the methods described above.
This required the use of a co-solvent in order to accurately pipette small volumes. In both cases dimethylformamide (DMF) was used as the co-solvent. […] Other biofuels were added directly without the use of a co-solvent.

Molecule	effect of efflux pumps on tolerance to the biofuel (survival relative to pump-free negative control) (E. coli DH1 ΔacrAB [1])	toxicity of the biofuel to cell growth (E. coli DH1 ΔacrAB [2])	biofuel level that inhibited growth (E. coli DH1 ΔacrAB [2]) [% v/v]	outcome of efflux pump in competition (E. coli DH1 ΔacrAB [2]; 0.025% limonene, 72 hours serial dilution)	outcome of efflux pump in competition (E. coli DH1 ΔacrAB [2]; 0.05% geraniol, 72 hours serial dilution)	outcome of efflux pump in competition (E. coli DH1 ΔacrAB [2]; 2% geranyl acetate, serial dilution competition)
CC(C)=CCC/C(C)=C/CO [geraniol]	increase survival several-fold	high and quite toxic	0.05			
CC(=O)OC/C=C(\C)CCC=C(C)C [geranyl acetate]	essentially confer immunity		2			
CC(C)CCO [isopentanol]	none of the pumps we tested confer an advantage	toxic	0.25			
CCCCO [n-butanol]	none of the pumps we tested confer an advantage	toxic	0.5			
AcrB: Escherichia coli K12 AcrAB efflux pump, plasmid-based copy (protein, UniProt P31224 1-1049, looked up) Multidrug efflux pump subunit …: MPNFFIDRPIFAWVIAIIIMLAGGLAILKLPVAQYPTIAPPAVTISASYPGADAKTVQDTVTQVIEQNMNGIDNLMYMSSNSDSTGTVQITLTFESGTDADIAQVQVQNKLQLAMPLLPQEVQQQGVSVEKSSSSFLMVVGVINTDGTMTQEDISDYVAANMKDAISRTSGVGDVQLFGSQYAMRIWMNPNELNKFQLTPVDVITAIKAQNAQVAAGQLGGTPPVKGQQLNASIIAQTRLTSTEEFGKILLKVNQDGSRVLLRDVAKIELGGENYDIIAEFNGQPASGLGIKLATGANALDTAAAIRAELAKMEPFFPSGLKIVYPYDTTPFVKISIHEVVKTLVEAIILVFLVMYLFLQNFRATLIPTIAVPVVLLGTFAVLAAFGFSINTLTMFGMVLAIGLLVDDAIVVVENVERVMAEEGLPPKEATRKSMGQIQGALVGIAMVLSAVFVPMAFFGGSTGAIYRQFSITIVSAMALSVLVALILTPALCATMLKPIAKGDHGEGKKGFFGWFNRMFEKSTHHYTDSVGGILRSTGRYLVLYLIIVVGMAYLFVRLPSSFLPDEDQGVFMTMVQLPAGATQERTQKVLNEVTHYYLTKEKNNVESVFAVNGFGFAGRGQNTGIAFVSLKDWADRPGEENKVEAITMRATRAFSQIKDAMVFAFNLPAIVELGTATGFDFELIDQAGLGHEKLTQARNQLLAEAAKHPDMLTSVRPNGLEDTPQFKIDIDQEKAQALGVSINDINTTLGAAWGGSYVNDFIDRGRVKKVYVMSEAKYRMLPDDIGDWYVRAADGQMVPFSAFSSSRWEYGSPRLERYNGLPSMEILGQAAPGKSTGEAMELMEQLASKLPTGVGYDWTGMSYQERLSGNQAPSLYAISLIVVFLCLAALYESWSIPFSVMLVVPLGVIGALLAATFRGLTNDVYFQVGLLTTIGLSAKNAILIVEFAKDLMDKEGKGLIEATLDAVRMRLRPILMTSLAFILGVMPLVISTGAGSGAQNAVGTGVMGGMVTATVLAIFFVPVFFVVVRRRFSRKNEDIEHSHTVDHH				best exported	best exported	survived the competition
